Measurements: patent publication US5723484A, “Benzopyran compounds as 5-HT2C receptor antagonists” (Adir et Compagnie, priority 1994, dated 1998)

Tests used:
[1] = molecular target: T1, 5-HT2A receptors (Rattus norvegicus, UniProt P14842); test: In vitro affinity for the 5-HT2A receptors, rat frontal cortex/[3H]-ketanserin (1.0 nM); format: binding
T1 construct: rat frontal cortex; from tissue; host or cells: rat frontal cortex
Method: (§1) Measurement of the in vitro affinity for the 5-HT2C and 5-HT2A receptors
(§2) The procedures described for the studies of the binding to the 5-HT2A and 5-HT2C receptors are exactly those described by H. Canton et al. (Eur. J. Pharmacol., 191, 93, 1990) and M. J. Millan et al. (J. Pharmacol. Exp. Ther., 262, 451-463, 1992). For 5-HT2A : rat frontal cortex/[^3 H]-ketanserin (1.0 nM). For 5-HT2C : pig […] plexus/[^3 H]-mesulergine (1.0 nM). The 50% inhibitory doses (ID50) are determined by regression analysis and the pKi values are calculated as follows: [formula] [L]=concentration of the Kd-Kd=dissociation constant Results

[2] = system: 5-HT2A receptors; details: literature; cited from earlier work
[3] = system: 5-HT2C receptors; details: literature; cited from earlier work
[4] = molecular target: T2, 5-HT2C receptors (Sus scrofa, UniProt K7GSR7); test: biochemical; format: binding, pig
T2 construct: pig cerebral plexus; from tissue; host or cells: pig cerebral plexus (own knowledge: choroid plexus)
T2 sequence (K7GSR7 1-457): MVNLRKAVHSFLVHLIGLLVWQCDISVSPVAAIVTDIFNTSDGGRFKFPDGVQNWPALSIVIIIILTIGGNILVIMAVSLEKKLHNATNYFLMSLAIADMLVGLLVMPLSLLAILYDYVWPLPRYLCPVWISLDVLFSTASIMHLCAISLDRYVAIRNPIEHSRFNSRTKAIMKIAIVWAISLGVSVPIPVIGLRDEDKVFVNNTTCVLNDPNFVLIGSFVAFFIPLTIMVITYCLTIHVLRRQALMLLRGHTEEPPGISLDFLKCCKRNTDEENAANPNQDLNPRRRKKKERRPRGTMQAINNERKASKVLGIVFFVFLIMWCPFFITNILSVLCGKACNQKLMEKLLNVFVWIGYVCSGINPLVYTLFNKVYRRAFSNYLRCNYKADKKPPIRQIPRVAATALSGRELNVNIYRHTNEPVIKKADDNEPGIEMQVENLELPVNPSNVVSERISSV
Method: as §1, §2

[5] = system: patients; details: clinical results in patients, literature; cited from earlier work

T1 sequence (P14842 whole entry): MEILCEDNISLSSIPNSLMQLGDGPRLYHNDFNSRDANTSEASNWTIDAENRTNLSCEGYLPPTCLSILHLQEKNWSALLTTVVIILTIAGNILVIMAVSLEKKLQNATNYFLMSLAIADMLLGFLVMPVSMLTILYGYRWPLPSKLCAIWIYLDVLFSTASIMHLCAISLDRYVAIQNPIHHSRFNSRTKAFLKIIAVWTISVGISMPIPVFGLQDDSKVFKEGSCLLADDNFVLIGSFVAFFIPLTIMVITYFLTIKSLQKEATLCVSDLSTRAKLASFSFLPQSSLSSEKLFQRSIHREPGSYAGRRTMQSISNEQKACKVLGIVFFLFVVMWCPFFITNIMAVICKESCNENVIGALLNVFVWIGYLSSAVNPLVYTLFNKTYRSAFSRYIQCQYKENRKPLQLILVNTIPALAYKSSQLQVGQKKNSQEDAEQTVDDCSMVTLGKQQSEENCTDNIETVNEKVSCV

SMILES: COc1cccc([C@H](O)C2CCN(CCc3ccc(F)cc3)CC2)c1OC [MDL 100,907, reference compound]
- affinity for the 5-HT2A sites/receptors [1]: very strong affinity
- action at 5-HT2A receptors [2]: selective 5-HT2A antagonist

SMILES: Cn1ccc2cc(NC(=O)Nc3cccnc3)ccc21 [SB 200,646, reference compound]
- affinity for the 5-HT2A sites/receptors [1]: weak affinity
- Ki ([1]; rat frontal cortex, [3H]-ketanserin 1.0 nM, average of two to four determinations): 1320 nM
- action at 5-HT2C receptors [3]: selective 5-HT2C antagonist
- affinity for the 5-HT2C receptors [4]: modest affinity
- Ki ([4]; 5-HT2C Ki (nM), pig cerebral plexus, [3H]-mesulergine 1.0 nM, average of two to four determinations): 204 nM
- Ki ([4]; affinity for the 5-HT2C receptors, of the order of): ~200 nM

SMILES: Clc1cccc(N2CCNCC2)c1 [mCPP]
- action at 5-HT2C receptors [3]: 5-HT2C agonist
- anxiogenic properties and exacerbation of psychiatric states [5]: pronounced anxiogenic properties and which exacerbates depressive, aggressive and psychotic states in patients
- action at 5-HT2A receptors [2]: 5-HT2A antagonist
